Molecules are shown by their SMILES.

On to `CNC(=O)c1cc(-c2ccc(OC)c(F)c2)nn(CC(C)C)c1=O`, for which the melting point (commonly the temperature of the solid-liquid transition) is 153 to 155 °C.
Next, `Cc1c(C(=O)NN2CCCCC2)nn(-c2ccc(Cl)cc2Cl)c1-c1ccc(OS(=O)(=O)CCC(F)(F)F)cc1`: 160 °C.
`O=C1c2ccccc2C(=O)c2sc(-c3ncc(-c4ccccc4)o3)nc21` had a melting point greater than 260 °C.
As to `CCCC(=O)c1ccc(OC)c(C(=O)Cl)c1`, the melting point amounted to 65 °C.
Compound `NC(=O)c1cc2ccccc2nc1N` had a melting point of 240 to 242 °C.
In turn, `Nc1nnc(OCc2ccccc2)s1` registered a melting point of 173 to 175 °C.
The value for `Nc1nc(N)c2c(ccc3c2c2c(n3Cc3ccccc3)CCCC2)n1` was 224 to 226 °C; that for `CC(Cl)=Cc1ccc([N+](=O)[O-])o1` was 55 to 65 °C; that for `O=C(c1ccccc1)c1ccc(OCCCCNS(=O)(=O)c2ccc(Br)cc2)cc1` was 71 to 73 °C.
The value for `Nc1ccc2ccc(SCc3ccccc3)nc2n1` was 167 °C.
`Nc1nc(SC2CCCC2)c2ncn(C3C=CC(CO)C3)c2n1` (stereo not drawn): the melting point lay within 167 to 169 °C.
The value for `COC(=O)C(C)Oc1ccc(Oc2ncc(Cl)cc2N)cc1` (stereo not drawn) was 92 to 94 °C; that for `COC(=O)Cc1ccc2c(c1)CCN2C(C)=O` was 104 to 105 °C; that for `NS(=O)(=O)c1ccc(-n2nc(C(=O)O)cc2-c2ccccc2)cc1` was 188 to 191 °C.
`CCOC(=O)CCCOc1ccc(C23CC4CC(CC(C4)C2)C3)cc1` had a melting point of 45 to 46 °C.
`Nc1c(-c2cccc(Oc3ccccc3)c2)c(=O)[nH]c2cc(Cl)ccc12` displayed a melting point of 196 to 197 °C.
`O=C(Nc1cccc(-c2ccnc3c(C(=O)c4cccs4)cnn23)c1)OCCCN1CCS(=O)(=O)CC1`: the melting point was 148 to 159 °C.
The value for `CCN1CCN(CCN2CC[C@H](NC(=O)c3cc(Cl)c(N)cc3OC)[C@H](OC)C2)C1=O` (relative stereo) was 153 °C; that for `O=C(Nc1ccc(C(=O)O)c(O)c1)c1ccc(-c2ccccc2)cc1` was 266 °C; that for `C[C@@H](NC(=O)Nc1ccc(C(C)(C)C)cc1)c1ccc(NS(C)(=O)=O)c(C#C[Si](C)(C)C)c1` was 118 to 120 °C.
`Cc1cccc(-c2[nH]c(C(C)C)nc2-c2cccc(-c3ccccn3)c2)n1` returned a melting point of 97 to 100 °C.
The value for `CC(O)c1ccc(-c2ccc(Cl)c(Cl)c2)o1` (stereo not drawn) was 82.5 to 83.5 °C; that for `Cc1nn(C)c2c1N(C(=O)CN1CCCCC1)c1ccccc1NC2=O` was 156 to 158 °C; that for `COC(=O)c1c(F)cc(OCCNC(=O)C2Cc3ccccc3N2S(=O)(=O)c2ccc(-c3ccc(F)cc3F)cc2)cc1F` (stereo not drawn) was 69 to 77 °C.
The compound `CCOC(=O)C=C(C)Nc1ccc(F)c(OCc2ccccc2)c1` returned a melting point of 79 to 80 °C.
As to `COC(=O)c1ccccc1-c1ccc(CNc2nc(Cl)nc3ccsc23)cc1`, the melting point was in the range of 177 to 182 °C.
The value for `CCOC(=O)c1cc(-c2ncc(Cl)cc2F)nn1C` was 117 to 118 °C; that for `CC1(C)C(C#N)C1C(=O)O` (stereo not drawn) was 101 to 106 °C; that for `CCOC(=O)Nc1sc(C)c(C#N)c1S(=O)(=O)NC(=S)NC(C)C` was 169 to 171 °C.
Next, `Oc1ccc(-c2nn(C3CCCC3)c3c(C(F)(F)F)cccc23)c(O)c1`: 159 to 160 °C; `Cc1cc(-c2cc(C(F)(F)F)nc(-c3ccnc(-c4ccc(S(N)(=O)=O)s4)c3)n2)ccc1Cl`: 280 °C; `O=C(Nc1ccc2ncnc(Nc3cc(Cl)c(Cl)cc3F)c2c1)C(Cl)Cl`: greater than 300 °C.
In turn, `Cc1cc(C)c2c(c1)SCC2c1ccc(C(C)C)cc1` (stereo not drawn) registered a melting point of 74 to 75 °C.
The value for `CCCCS(=O)(=O)N(C(=O)OC(C)(C)C)c1cc(O)ccc1OCc1ccccc1` was 131 to 133 °C; that for `Cc1ccc(S(=O)(=O)n2ccnc2C(O)(c2ccc(F)cc2)c2ccc(F)cc2)cc1` was 149 to 151 °C.
Turning to `CO/C(=C1/C(C)=C(CC(=O)O)c2cc(F)ccc21)c1ccccc1`, the melting point lay in the range of 184 to 186 °C.
Next, `CCNS(=O)(=O)c1nc2ccccc2n1CC`: 135 to 139 °C; `CCOCc1nc2c(c(C)c(C)n3nnnc23)n1CCNS(C)(=O)=O`: 218 to 222 °C.
Regarding `O=CNCC1CCN(C(c2ccccc2)c2ccccc2)CC1`, the melting point was found to be 125 °C.
Next, `CCOC(=O)NCCN1c2ccccc2N2CCc3cccc(c32)C1C` (stereo not drawn): 94 to 96 °C.
The value for `Cc1c2c(nc3ccccc13)CCN(C(=O)C(C)C)CC2` was 107 °C; that for `CC(=O)OCC(=O)Nc1nc(CN2CCC(c3c[nH]c4ccccc34)CC2)cs1` was 140 to 144 °C; that for `CN1C(=O)N(c2cc(Cl)cc(Cl)c2)C(=O)[C@]12CN(Cc1cc(C(=O)O)cs1)C[C@H]2c1ccc(C#N)cc1` (relative stereo) was 188 °C.
The value for `COC(=O)COc1ccc(C(=O)C(C)Br)cc1Cl` (stereo not drawn) was 63 to 65 °C; that for `NC(=O)COc1ccccc1C(=O)Nc1ccc(C(=O)N2CCCC(=O)c3ccccc32)cc1` was 226 to 228 °C.
Regarding `O=C1C2CCCCC2C(=O)N1c1ccc(Br)cc1F` (stereo not drawn), the melting point lay within 90 to 92 °C.
In turn, `COc1c(O)c([N+](=O)[O-])cc(C(=O)c2ccccc2)c1Cl` came in with a melting point of 143 to 145 °C.
The compound `CCOC(=O)CC1=COc2ccc(O)cc2O1` gave a melting point of 160 °C.
`COc1ccc(-c2ncn(-c3cc(OC)c(OC)c(OC)c3)c2-c2cc(OC)c(OC)c(OC)c2)cc1OC` registered a melting point of 160 to 161 °C.
Next, `CC(=O)NCCOC(=O)C(Oc1ccc(F)c(C(F)(F)F)c1)c1ccc(Cl)cc1` (stereo not drawn): 108 °C.
Compound `Oc1cccc(CCCn2ccnc2)c1` displayed a melting point of 110 to 111 °C.
For the compound `CC(=O)OCCn1nc(O)c2[nH]c3cc(Cl)ccc3c(=O)c2c1=O`, the melting point fell in the range of 307 to 309 °C.
Next, `Oc1ccc2c(c1)C(c1ccc(OCCN3CCCCC3)cc1)c1c-2ccc2ccccc12` (stereo not drawn): 180 to 181 °C; `CCC(c1cc2c(-c3ccc(C(F)(F)F)n(C)c3=O)c(F)cc(Cl)c2o1)S(C)=O` (stereo not drawn): 125 to 127 °C.
Next, `COC(=O)C1Cc2cc(Br)ccc2N1C(=O)c1ccccc1` (stereo not drawn): 168 to 169 °C.
Compound `CCCc1ccc(-c2cc(F)c(-c3ccc(CC)s3)c(F)c2)cc1` yielded a melting point of 45 °C.
For `CC(C)COc1ccccc1Nc1ncc(C(=O)O)c(=O)[nH]1`, the melting point is 213 to 215 °C.
On to `c1ccc(-c2nc3cnccc3o2)cc1`, for which the melting point lay within 118 to 121 °C.
As for `OCc1ccc(O)c(CO)c1CNCCCCCCOCCCCCc1ccco1`, the melting point was in the range of 59 to 60 °C.
The value for `CCn1cc(C(=O)O)c(=O)c2cc(F)c(-c3csc(CN)n3)c(F)c21` was 199 to 203 °C.
`COC(=O)COc1cccc2c1CCC(Cc1coc(C(c3ccccc3)c3ccccc3)n1)C2` (stereo not drawn): the melting point is 91 to 93 °C.
For `FC(F)c1nc2ccccc2n1-c1nc(Nc2cnccn2)nc(N2CCOCC2)n1`, the melting point is 271 to 274 °C.
The value for `Cc1nnc(Cl)c2cc3n(c12)CCCC3` was 272 to 274 °C.

For the origin of these results see a melting point compilation (Tetko et al.; mined from patent text by program, amines drawn as free bases though some values may be those of a salt).
